Assay results published in paper PMC6887720 (Pharmacology Research & Perspectives, 2019).
Where two headings read alike, the source gives them in different places. Residues, ends and D or L forms follow the SMILES beside them. No end group written: not given here.

Experiments:
human MrgX1 (hMrgX1) = human MrgX1 (hMrgX1) (Homo sapiens, UniProt Q96LB2); assay: Ca2+ mobilization; format: cell-based; details: hMrgX1-Gα16 cells
[1] = system: U2OS cells (untransfected); assay: Ca2+ mobilization in U2OS cells lacking MrgX2; format: cell-based, human
human MrgX2 (hMrgX2) [2] = molecular target: T1, human MrgX2 (hMrgX2) (Homo sapiens, UniProt Q96LB1); assay: Ca2+ mobilization; format: cell-based
T1 sequence (Q96LB1 1-330): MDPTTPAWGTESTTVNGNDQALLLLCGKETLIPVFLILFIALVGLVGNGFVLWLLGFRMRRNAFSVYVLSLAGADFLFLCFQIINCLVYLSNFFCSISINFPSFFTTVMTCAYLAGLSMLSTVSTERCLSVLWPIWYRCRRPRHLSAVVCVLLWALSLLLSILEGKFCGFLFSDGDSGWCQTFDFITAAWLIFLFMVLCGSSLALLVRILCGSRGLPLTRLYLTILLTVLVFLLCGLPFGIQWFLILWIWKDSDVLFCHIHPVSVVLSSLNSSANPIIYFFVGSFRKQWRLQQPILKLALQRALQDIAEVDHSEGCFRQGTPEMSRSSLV

mpMrgX2 = assay: Ca2+ mobilization, mpMrgX2 transfected into HEK293-MSRII-Gα16 cells; format: cell-based, minipig; details: data not shown
[3] = system: rat MrgX2 (rMrgX2, Mrgprb3); assay: Ca2+ mobilization; format: cell-based; details: for calcium response (in words): no Gα16
HEK293-MSRII-Gα16 cells = assay: Ca2+ mobilization, untransfected HEK293-MSRII-Gα16 host cells; format: cell-based, human; details: data not shown
[4] = molecular target: EED (embryonic ectoderm development) (Homo sapiens, UniProt O75530); assay: Binding to EED
EED (embryonic ectoderm development), sequence (O75530 whole entry, species assumed): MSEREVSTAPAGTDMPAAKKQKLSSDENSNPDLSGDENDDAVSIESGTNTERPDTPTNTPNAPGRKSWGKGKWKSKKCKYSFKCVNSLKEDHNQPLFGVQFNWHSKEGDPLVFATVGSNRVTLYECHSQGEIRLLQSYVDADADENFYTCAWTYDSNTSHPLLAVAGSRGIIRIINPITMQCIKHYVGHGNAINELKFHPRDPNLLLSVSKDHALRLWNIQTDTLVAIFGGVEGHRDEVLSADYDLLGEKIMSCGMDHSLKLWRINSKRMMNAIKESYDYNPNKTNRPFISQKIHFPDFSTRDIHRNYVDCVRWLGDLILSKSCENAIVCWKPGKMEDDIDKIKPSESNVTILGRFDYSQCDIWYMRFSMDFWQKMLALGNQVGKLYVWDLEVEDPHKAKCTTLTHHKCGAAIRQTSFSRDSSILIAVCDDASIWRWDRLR

rat = assay: Intravenous pharmacokinetic study in rat: observed adverse signs; format: in vivo; details: intravenous bolus 5 mg/kg
pig MrgX2 (pMrgX2) = assay: Ca2+ mobilization; format: cell-based; details: data not shown
minipig MrgX2 (mpMrgX2) = molecular target: T2, minipig MrgX2 (mpMrgX2) (Sus scrofa, UniProt A0A4Y5P9C0); assay: Ca2+ mobilization; format: cell-based; details: for calcium response (in words): truncated mpMrgX2
T2 sequence (A0A4Y5P9C0 38-367): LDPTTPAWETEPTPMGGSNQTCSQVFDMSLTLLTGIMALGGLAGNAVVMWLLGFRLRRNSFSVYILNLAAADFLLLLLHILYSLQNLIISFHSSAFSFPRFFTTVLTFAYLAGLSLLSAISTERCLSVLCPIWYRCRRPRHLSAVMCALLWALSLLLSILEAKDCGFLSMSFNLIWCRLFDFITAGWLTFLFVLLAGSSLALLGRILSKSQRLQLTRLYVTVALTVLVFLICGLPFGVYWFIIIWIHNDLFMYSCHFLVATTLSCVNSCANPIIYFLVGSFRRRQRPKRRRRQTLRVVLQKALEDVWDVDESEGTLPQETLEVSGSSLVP

human MrgX2 (hMrgX2) [5] = molecular target: T1, human MrgX2 (hMrgX2); assay: Ca2+ mobilization; format: cell-based; remark: listed apart in the source
[6] = molecular target: T3, truncated beagle MrgX2 (beMrgX2) (Canis lupus familiaris, UniProt A0A4Y5P885); assay: Ca2+ mobilization; format: cell-based, beagle dog; details: for calcium response (in words): truncated beMrgX2
T3 sequence (A0A4Y5P885 88-417): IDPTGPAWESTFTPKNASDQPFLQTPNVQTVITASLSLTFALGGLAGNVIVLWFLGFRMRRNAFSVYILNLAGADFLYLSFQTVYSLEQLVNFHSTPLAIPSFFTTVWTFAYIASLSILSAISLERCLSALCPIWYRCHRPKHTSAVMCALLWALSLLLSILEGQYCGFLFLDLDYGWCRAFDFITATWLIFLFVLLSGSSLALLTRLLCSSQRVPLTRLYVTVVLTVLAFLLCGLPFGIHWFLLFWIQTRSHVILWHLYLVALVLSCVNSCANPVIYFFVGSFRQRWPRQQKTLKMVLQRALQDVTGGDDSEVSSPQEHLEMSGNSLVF

[7] = system: mouse MrgX2 versus human MrgX2; details: cited from earlier work
[8] = cited from earlier work
[9] = dog, cited from earlier work
[10] = molecular target: T4, mouse MrgX2 (mMrgX2, Mrgprb2) (Mus musculus, UniProt Q3KNA1); assay: Ca2+ mobilization; format: cell-based; details: no Gα16, up to 1mM
T4 sequence (Q3KNA1 1-338): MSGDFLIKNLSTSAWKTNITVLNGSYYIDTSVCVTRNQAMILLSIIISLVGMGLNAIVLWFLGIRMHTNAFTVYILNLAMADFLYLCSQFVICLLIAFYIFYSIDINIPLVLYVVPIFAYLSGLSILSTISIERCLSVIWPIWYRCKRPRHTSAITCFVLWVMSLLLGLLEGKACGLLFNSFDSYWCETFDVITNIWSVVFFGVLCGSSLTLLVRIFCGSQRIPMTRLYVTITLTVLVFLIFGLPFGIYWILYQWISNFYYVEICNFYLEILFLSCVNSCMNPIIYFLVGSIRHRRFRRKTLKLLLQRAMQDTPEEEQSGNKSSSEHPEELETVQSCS

[11] = minipig; cited from earlier work
[12] = untransfected U2OS parent cells

human MrgX1 (hMrgX1), sequence (Q96LB2 whole entry): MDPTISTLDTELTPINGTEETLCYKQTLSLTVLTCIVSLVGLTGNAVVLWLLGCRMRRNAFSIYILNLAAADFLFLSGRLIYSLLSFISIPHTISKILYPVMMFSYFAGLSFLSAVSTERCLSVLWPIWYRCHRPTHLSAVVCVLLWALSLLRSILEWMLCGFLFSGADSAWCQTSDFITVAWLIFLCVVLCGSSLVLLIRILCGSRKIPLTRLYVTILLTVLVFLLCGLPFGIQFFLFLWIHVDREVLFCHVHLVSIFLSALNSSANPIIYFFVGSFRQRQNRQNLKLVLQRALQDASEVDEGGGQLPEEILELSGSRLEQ

Compound: VGRPEWWMDYNKRYG [BAM8-22]
- calcium response (in words) (human MrgX1 (hMrgX1)): higher potency at hMrgX1‐Gα16 cells

Compound: C[C@@H](O)[C@@H]1NC(=O)[C@H](CCCCN)NC(=O)[C@H](Cc2c[nH]c3ccccc23)NC(=O)[C@H](Cc2ccccc2)NC(=O)[C@H](Cc2ccccc2)NC(=O)[C@H](CC(N)=O)NC(=O)[C@H](CCCCN)NC(=O)[C@@H](NC(=O)[C@@H]2CCCN2)CSSC[C@@H](C(=O)N[C@@H](CCCCN)C(=O)O)NC(=O)[C@H](CO)NC(=O)[C@H](CO)NC(=O)[C@H](Cc2ccccc2)NC1=O [Cortistatin-14] (HELM PEPTIDE1{P.C.K.N.F.F.W.K.T.F.S.S.C.K}$PEPTIDE1,PEPTIDE1,2:R3-13:R3$$$V2.0)
- calcium response (in words) [1, 12]: No U2OS calcium response
- EC50 (human MrgX2 (hMrgX2) [2]): 0.316 to 0.794 µM
- calcium response (in words) (mpMrgX2): conferred calcium responses
- calcium response (in words) [3]: conferred a response
- calcium response (in words) (HEK293-MSRII-Gα16 cells): failed to activate untransfected host cells

Compound: NCCc1c[nH]cn1 [histamine]
- calcium response (in words) (HEK293-MSRII-Gα16 cells): did not cause calcium release

Compound: CCCC[C@@H]1NC(=O)[C@@](C)(NC(C)=O)CCCC=CCCC[C@@](C)(C(=O)N[C@@H](CC(N)=O)C(=O)N[C@@H](CCCNC(=N)N)C(=O)N[C@@H](CCC(N)=O)C(=O)N[C@@H](CCCCN)C(=O)N[C@H](C(=O)N[C@@H](CC(C)C)C(=O)N[C@@H](CCC(=O)O)C(=O)N[C@@H](CCCNC(=N)N)C(=O)N[C@H](C(=O)N[C@@]2(C)CCCC=CCCC[C@@](C)(C(=O)N[C@@H](CCC(=O)O)C(=O)N[C@@H](Cc3c[nH]c4ccccc34)C(=O)N[C@@H](CCCCN)C(=O)N[C@@H](CCC(N)=O)C(=O)N[C@@H](CCCNC(=N)N)C(N)=O)NC(=O)[C@H](CC(N)=O)NC(=O)[C@H](CC(C)C)NC(=O)[C@H]([C@@H](C)CC)NC2=O)[C@@H](C)O)[C@@H](C)CC)NC(=O)[C@H](CO)NC(=O)[C@H](Cc2ccccc2)NC1=O (relative stereo) [Peptide 4]
- IC50 (binding to EED) [4]: high affinity
- time to observation of symptoms (rat): ≤ 3 min

Compound: CCCC[C@@H]1NC(=O)[C@@](C)(NC(C)=O)CCCC=CCCC[C@@](C)(C(=O)N[C@@H](CC(N)=O)C(=O)N[C@@H](CCCNC(=N)N)C(=O)N[C@@H](CCC(N)=O)C(=O)N[C@@H](CCCCN)C(=O)N[C@H](C(=O)N[C@@H](CC(C)C)C(=O)N[C@@H](CCCNC(=N)N)C(=O)N[C@@H](CCCNC(=N)N)C(=O)N[C@H](C(=O)N[C@@]2(C)CCCC=CCCC[C@@](C)(C(=O)N[C@@H](CCC(=O)O)C(=O)N[C@@H](Cc3c[nH]c4ccccc34)C(=O)N[C@@H](CCCCN)C(=O)N[C@@H](CCC(N)=O)C(=O)N[C@@H](CCCNC(=N)N)C(N)=O)NC(=O)[C@H](CC(N)=O)NC(=O)[C@H](CC(C)C)NC(=O)[C@H]([C@@H](C)CC)NC2=O)[C@@H](C)O)[C@@H](C)CC)NC(=O)[C@H](CO)NC(=O)[C@H](Cc2ccccc2)NC1=O (relative stereo) [GSK3212448]
- calcium response (in words) ([1]; U2OS cells transduced with Gα16 in the absence of hMrgX2): but not Gα16‐U2OS cells
- time to observation of symptoms (rat): ≤ 2 min
- fold more potent than reference agonist 48/80 ([3]; rMrgX2 in U2OS cells): 18 fold
- calcium response (in words) (pig MrgX2 (pMrgX2)): activated
- calcium response (in words) (minipig MrgX2 (mpMrgX2)): activated
- calcium response (in words) (human MrgX2 (hMrgX2) [5]; hMrgX2-Gα16-U2OS cells): could activate hMrgX2‐Gα16‐U2OS
- calcium response (in words) [6]: activated

Compound: CAS #: 130308-48-4 [Icatibant]
- calcium response (in words) [1, 12]: No U2OS calcium response
- fold less potent at mouse than human MrgX2 [7]: twofold

Compound: CN[C@H](CC(C)C)C(=O)N[C@H]1C(=O)N[C@@H](CC(N)=O)C(=O)N[C@H]2C(=O)N[C@H]3C(=O)N[C@H](C(=O)N[C@H](C(=O)O)c4cc(O)cc(O)c4-c4cc3ccc4O)[C@H](O)c3ccc(c(Cl)c3)Oc3cc2cc(c3O[C@@H]2O[C@H](CO)[C@@H](O)[C@H](O)[C@H]2O[C@H]2C[C@](C)(N)[C@H](O)[C@H](C)O2)Oc2ccc(cc2Cl)[C@H]1O [vancomycin]
- protein binding ([8]; serum): 50%
- Cmax ([8]; vancomycin-treated patients): > 30 µM
- trough (lowest) free serum concentration ([8]; vancomycin-treated patients): ≈ 5 ± 2 µmol/L
- trough serum concentration ([8]; vancomycin-treated patients): 13.6 ± 5.9 mg/L
- calcium response (in words) [1, 12]: Negligible calcium responses
- free Cmax ([9]; assuming 50% protein binding): ≈ 35 µmol/L
- Cmax [9]: ≈ 100 µg/ml
- histamine-like symptoms (in words) [9]: no histamine‐like symptoms were observed
- calcium response (in words) [3]: did not reach maximal effect at 1mM
- EC50 (minipig MrgX2 (mpMrgX2)): 158 µM
- Emax (minipig MrgX2 (mpMrgX2); U2OS): 84 ± 13%
- calcium response (in words) (minipig MrgX2 (mpMrgX2)): full or near‐full agonist
- EC50 (human MrgX2 (hMrgX2) [5]): 39.8 µM
- Emax (human MrgX2 (hMrgX2) [5]): 87 ± 8%
- calcium response (in words) [10]: did not reach maximal effect at 1mM
- EC50 [6]: 25.1 µM
- Emax ([6]; U2OS): 97 ± 12%
- calcium response (in words) [6]: full or near‐full agonist
- Cmax [11]: 34000 ng/mL
- free Cmax [11]: ≈ 23 µmol/L
- histamine-like symptoms (in words) [11]: no histamine‐like symptoms were observed
